Data as given in patent publication US12459894B2, “Orally active melanocortin receptor-4 compounds” (Palatin Technologies, Inc., priority 2018, dated 2025).
Marks after values point to notes of the source that are not given here.

Legend:
[1] = Plasma concentrations following oral administration; format: in vivo, Sprague-Dawley rats; conditions: Sprague-Dawley, rat, oral 30 mg/kg
Protocol: Plasma samples were measured at 15 minutes (2 animals) and 30 minutes, 1 hour, 2 hours, 4 hours, 8 hours and 24 hours (3 animals) post oral administration.

[2] = target: T1, mMC1r (Mus musculus, UniProt Q01727); assay: cAMP assay, B16-F1 cells, NDP-α-MSH reference; format: cell-based; conditions: vs NDP-α-MSH
T1 construct: endogenous in cells; host or cells: B16-F1 mouse melanoma cells
Protocol: (§1) Melanocortin receptor binding and function of Compound 7.1 was tested. Ki binding values (nM) were calculated utilizing the percent inhibit of the binding of iodine-125 labeled NDP-α-MSH against B16-F1 cells for mMC1r, and human recombinant CHO cells for hMC3r, hMC4r and hMC5r, with the inhibition constant calculated using the Cheng Prusoff equation. Functional results (EC50 and efficacy) were calculated utilizing cAMP assays with NDP-α-MSH for mMC1r, hMC3r and hMC4r, ACTH for hMC2r, and α-MSH for hMC5r for agonist measures, with the same target cells for melanocortin receptors mMC1r, hMC3r, hMC4r and hMC5r, and human recombinant Cloudman M3 cells for hMC2r.

[3] = test system: C57BL/6 male DIO mice; assay: Body weight and food intake in vivo study in diet induced obese (DIO) mice; set-up: species or system mouse
Protocol: Compound 7.1 was assessed in a body weight and food intake in vivo study in diet induced obese (DIO) mice. C57BL/6 male DIO mice were utilized, that were 17 weeks of age on arrival. Animals were pre-conditioned on a high-fat diet for 11 weeks by Jackson Labs. […] Animals were single housed within a limited access rodent facility, and provided ad libitum with a commercial rodent diet and free access to drinking water. Animals were randomized into five groups, a vehicle group, three dose levels of compound 7.1 (3 mg/kg, 10 mg/kg and 30 mg/kg), and Peptide A, a positive control cyclic peptide of the formula Ac-Arg-cyclo(Om-Asn-D-Phe-Arg-Trp-Glu)-NH2. Following three days of sham dosing, animals were dosed for three days, with vehicle or Compound 7.1 dosed orally once daily at within one hour of lights out in the AM, and Peptide A dosed by subcutaneous injection twice daily within one hour before lights out and six hours after lights out. Body weights were measured one hour prior to lights out, and feed weights were measured both one hour prior to lights out and six hours post lights out.
• *p<0.05 vs. sham (vehicle control) using two-way ANOVA followed by Dunnett's post-test. • **p<0.01 vs sham (vehicle control) using two-way ANOVA followed by Dunnett's post-test.

[4] = target: T2, hMC3r (Homo sapiens, UniProt P41968); assay: cAMP assay, human recombinant CHO cells, NDP-α-MSH reference; format: cell-based; conditions: vs NDP-α-MSH
T2 construct: expressed in transfected cells; host or cells: CHO
Protocol: as §1

[5] = target: T3, hMC2r (Homo sapiens, UniProt Q01718); assay: cAMP assay, human recombinant Cloudman M3 cells, ACTH reference; format: cell-based; conditions: vs ACTH
T3 construct: expressed in transfected cells; host or cells: Cloudman M3 cells
Protocol: as §1

[6] = target: MC4r (Homo sapiens, UniProt P32245); assay: cAMP assay, human recombinant CHO cells, NDP-α-MSH reference; format: cell-based; set-up: expressed in transfected cells; host or cells: CHO; conditions: vs NDP-α-MSH
Protocol: as §1

[7] = target: T4, hMC5r (Homo sapiens, UniProt P33032); assay: cAMP assay, human recombinant CHO cells, α-MSH reference; format: cell-based; conditions: vs α-MSH
T4 construct: expressed in transfected cells; host or cells: CHO
Protocol: as §1

[8] = test system: MC4r (−/−) mice; assay: Oral administration in MC4r knockout mice; format: in vivo, mouse; conditions: 30 mg/kg twice daily oral gavage
Protocol: (§2) Feed intake and body weight was evaluated in MCr4 knockout (MC4r −/−) mice (Jackson Laboratories) compared to C57BI/6 DIO mice. […] Feed weights were taken at time 0, 2, 6 and 24 hours post lights out. […] The change in body weight is shown in FIG. 4 starting on study day 5, the first day of administraton of compound 7.1. […] Additionally, there was a statistically significant mean difference, 2.8%, 95% Cl (1.281, 4.253), and p value<0.0001 between DIO mice receiving compound 7.1 and MC4r (−/−) receiving compound 7.1.

[9] = test system: male mice homogygous for the obese spontaneous mutation, Lep^ob; assay: Oral administration in leptin-deficient obese mice; format: in vivo, mouse; conditions: 30 mg/kg twice daily for six consecutive days
Protocol: Male mice homogygous for the obese spontaneous mutation, Lep^ob, with resulting leptin protein deficiency, were individually housed with free access to feed and drinking water. All animals were sham-dosed twice daily for five days prior to initial drug administration, utilizing a vehicle dose of 3.2% mannitol and […] tris(hydroxymethyl)aminomethane at pH 7.4. On day 6 a cohort of the mice received compound 7.1 dissolved into the vehicle twice daily for six consecutive days at a dose of 30 mg/kg. Body weight of animals was measured daily, with data analyzed as the percent change from baseline of each individual animal, where baseline was defined as the average weight during the first three days of sham dosing. The averaged percent change from baseline of a vehicle group was then subtracted from each value to correct for continued weight gain or other study-wide factors. The change in body weight is shown in FIG. 3 starting on study day […], the first day of administration of compound 7.1.

[10] = test system: C57BI/6 DIO mice; assay: Oral administration in DIO mice (comparison to MC4r knockout mice); format: in vivo, mouse
Protocol: as §2

T4 sequence (P33032 whole entry): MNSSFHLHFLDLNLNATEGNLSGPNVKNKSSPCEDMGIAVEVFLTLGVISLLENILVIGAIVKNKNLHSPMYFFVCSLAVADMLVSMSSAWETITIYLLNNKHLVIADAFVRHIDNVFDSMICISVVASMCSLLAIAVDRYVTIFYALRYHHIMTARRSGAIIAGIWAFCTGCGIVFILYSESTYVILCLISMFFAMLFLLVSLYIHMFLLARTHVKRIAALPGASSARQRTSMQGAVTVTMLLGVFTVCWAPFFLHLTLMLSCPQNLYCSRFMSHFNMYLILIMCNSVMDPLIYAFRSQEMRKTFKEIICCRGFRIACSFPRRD
Chain of MC4r (P32245 whole entry): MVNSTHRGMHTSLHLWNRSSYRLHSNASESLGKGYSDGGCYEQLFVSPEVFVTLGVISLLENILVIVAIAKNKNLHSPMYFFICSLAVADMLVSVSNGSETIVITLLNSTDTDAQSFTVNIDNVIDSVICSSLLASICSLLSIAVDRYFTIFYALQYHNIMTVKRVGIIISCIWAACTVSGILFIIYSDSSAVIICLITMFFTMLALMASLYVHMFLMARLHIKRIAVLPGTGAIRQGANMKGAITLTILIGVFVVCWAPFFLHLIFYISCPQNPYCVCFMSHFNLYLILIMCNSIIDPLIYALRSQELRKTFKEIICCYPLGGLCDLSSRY
T1 sequence (Q01727 whole entry): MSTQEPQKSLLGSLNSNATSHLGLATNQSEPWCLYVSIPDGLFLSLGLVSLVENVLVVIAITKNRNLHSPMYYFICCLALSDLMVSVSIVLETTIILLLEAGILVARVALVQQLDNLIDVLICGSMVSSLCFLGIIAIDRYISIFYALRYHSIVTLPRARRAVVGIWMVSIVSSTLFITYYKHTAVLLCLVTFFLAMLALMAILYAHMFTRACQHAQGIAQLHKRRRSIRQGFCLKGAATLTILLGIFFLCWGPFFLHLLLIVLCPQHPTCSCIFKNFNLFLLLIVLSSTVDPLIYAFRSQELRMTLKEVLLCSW
T3 sequence (Q01718 whole entry): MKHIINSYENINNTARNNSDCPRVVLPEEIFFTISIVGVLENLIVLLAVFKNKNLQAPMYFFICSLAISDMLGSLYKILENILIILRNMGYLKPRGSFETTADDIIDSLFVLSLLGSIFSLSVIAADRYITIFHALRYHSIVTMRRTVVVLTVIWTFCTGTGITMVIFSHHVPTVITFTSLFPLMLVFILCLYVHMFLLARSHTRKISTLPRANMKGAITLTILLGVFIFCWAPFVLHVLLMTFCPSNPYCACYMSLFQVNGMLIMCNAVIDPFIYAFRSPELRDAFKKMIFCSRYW
T3 sequence (Q9D159 whole entry partner): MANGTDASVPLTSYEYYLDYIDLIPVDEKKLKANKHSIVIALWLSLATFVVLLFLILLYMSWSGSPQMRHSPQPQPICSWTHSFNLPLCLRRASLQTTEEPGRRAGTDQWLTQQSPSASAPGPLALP
T2 sequence (P41968 whole entry): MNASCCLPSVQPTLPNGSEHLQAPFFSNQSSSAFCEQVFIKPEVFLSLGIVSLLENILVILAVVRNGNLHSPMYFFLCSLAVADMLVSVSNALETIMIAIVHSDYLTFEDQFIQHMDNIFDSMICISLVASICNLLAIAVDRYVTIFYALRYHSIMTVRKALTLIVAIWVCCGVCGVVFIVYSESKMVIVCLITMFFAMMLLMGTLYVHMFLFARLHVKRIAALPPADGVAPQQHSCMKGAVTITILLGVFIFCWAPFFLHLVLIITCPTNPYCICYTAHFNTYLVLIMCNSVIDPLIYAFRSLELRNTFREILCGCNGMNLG

**Q.** Which results are given for `CC(=O)N1CCC(N(CC(C)C)N2CCN(C(=O)[C@@H](Cc3ccc(Cl)cc3)NC(=O)C(C)(C)N)CC2)CC1` [Compound 7.1, N-[(1R)-2-[4-[(1-acetyl-4-piperidyl)-isobutyl-amino]piperazin-1-yl]-1-[(4-chlorophenyl)methyl]-2-oxo-ethyl]-2-amino-2-methyl-propanamide]?
**A.** Tmax [1]: 2 h; cAMP Efficacy [2]: 72%; Body Weight Change (%) Mean ([3]; 3 mg/kg orally once daily, Day 0): 0%; Food Intake - 24 Hours (g) Mean ([3]; 3 mg/kg orally once daily, Day 0, 24 hours post lights out): 1.90 g; Body Weight Change (%) Mean ([3]; 3 mg/kg orally once daily, Day 1): −1.97%; Food Intake - 24 Hours (g) Mean ([3]; 3 mg/kg orally once daily, Day 1, 24 hours post lights out): 2.03 g; Body Weight Change (%) Mean ([3]; 3 mg/kg orally once daily, Day 2): −2.92%; Food Intake - 24 Hours (g) Mean ([3]; 3 mg/kg orally once daily, Day 2, 24 hours post lights out): 2.11 g; Body Weight Change (%) Mean ([3]; 3 mg/kg orally once daily, Day 3): −3.80* %; body weight ([3]; 3 mg/kg, day 3): body weight loss on day 3; Body Weight Change (%) Mean ([3]; 10 mg/kg orally once daily, Day 0): 0%; Food Intake - 24 Hours (g) Mean ([3]; 10 mg/kg orally once daily, Day 0, 24 hours post lights out): 1.82 g; Body Weight Change (%) Mean ([3]; 10 mg/kg orally once daily, Day 1): −2.48* %; Food Intake - 24 Hours (g) Mean ([3]; 10 mg/kg orally once daily, Day 1, 24 hours post lights out): 1.78 g; Body Weight Change (%) Mean ([3]; 10 mg/kg orally once daily, Day 2): −3.77** %; Food Intake - 24 Hours (g) Mean ([3]; 10 mg/kg orally once daily, Day 2, 24 hours post lights out): 2.20 g; Body Weight Change (%) Mean ([3]; 10 mg/kg orally once daily, Day 3): −4.35** %; Body Weight Change (%) Mean ([3]; 30 mg/kg orally once daily, Day 0): 0%; Food Intake - 24 Hours (g) Mean ([3]; 30 mg/kg orally once daily, Day 0, 24 hours post lights out): 1.62* g; Body Weight Change (%) Mean ([3]; 30 mg/kg orally once daily, Day 1): −4.41** %; Food Intake - 24 Hours (g) Mean ([3]; 30 mg/kg orally once daily, Day 1, 24 hours post lights out): 1.60* g; Body Weight Change (%) Mean ([3]; 30 mg/kg orally once daily, Day 2): −5.82** %; Food Intake - 24 Hours (g) Mean ([3]; 30 mg/kg orally once daily, Day 2, 24 hours post lights out): 1.91* g; Body Weight Change (%) Mean ([3]; 30 mg/kg orally once daily, Day 3): −7.08** %; feed intake ([3]; 30 mg/kg, 24 hours post lights out, entirety of the study, vs sham): significantly inhibited feed intake; body weight ([3]; daily 10 mg/kg and 30 mg/kg, day 1 to 3): significant body weight loss; cAMP Efficacy [4]: 28%; cAMP Efficacy [5]: 22%; cAMP Efficacy [6]: 91%; cAMP Efficacy [7]: 20%; food consumption vs vehicle only [8]: no differences in food consumption; decrease in body weight compared to vehicle controls [9]: 4.8%; food consumption vs vehicle only ([10]; 30 mg/kg twice daily oral gavage, DIO mice, 6 and 24 hour timepoints): significantly decreased; mean difference in body weight change between DIO mice and MC4r (−/−) mice receiving compound ([10]; 30 mg/kg twice daily oral, p value<0.0001): 2.8%; body weight vs own vehicle group ([10]; 30 mg/kg two daily administrations via oral gavage, DIO mice): significant body weight loss; mean percentage body weight change difference between treated group and vehicle ([10]; DIO mice, 30 mg/kg twice daily oral): 4.9%
